Measurements: patent US5084564A, “Production of oligosaccharide fractions having antithrombotic properties by controlled chemical depolymerization of heparin” (Bioiberica, S.A., priority 1988, dated 1992)

Conditions: rat, in vivo, sc

heparin
bioavailability: 48-60%
